# Results taken from PMC12474757, “Paving the way for future PSMA inhibitors: insights from comparative preclinical evaluations of structure modifications” (EJNMMI Radiopharmacy and Chemistry, 2025).
# Assays:
# [1] = Octanol/water partition coefficient (log P); assay type: physicochemical; details: octanol/PBS; mean ± SD n = 6
# Method: Octanol/water partition coefficient (P) was determined as described before (Petrik et al. [2012]). Briefly, 600 µL PBS was added to the total volume of the ⁶⁸Ga-P15. New tube was filled with 50 µL of the above-mentioned solution, 500 µL octanol and 450 µL PBS. Five more samples were prepared in this way and then placed on an orbital shaker for 20 min. The samples were then centrifuged at 15,000 rpm for 1 min. After centrifugation, two samples were taken from each tube, one from the octanol and the other from the aqueous phase. The radioactivity of these samples was measured using an automated gamma computer and the formula log P = log(Aoctanol/AH2O) was employed to calculate log P. The same procedure was applied when determining the partition coefficient of ⁶⁸Ga-P16, ⁶⁸Ga-P19, and ⁶⁸Ga-PSMA-617.
# [2] = biological target: T1, PSMA (LNCaP cells) (Homo sapiens, UniProt Q04609); assay: Competition assay on LNCaP cells against [68Ga]Ga-PSMA-617; assay type: binding; details: for IC50: competition with 5 nM [68Ga]Ga-PSMA-617, 60 min, 37 °C
# T1 construct: host or cells: LNCaP
# Method: The competition assay, LNCaP cells were seeded into poly-L-lysine coated 24-well plates in amount of 0.5 × 10^6 cells/well 24 h prior to the competition assay. The tested ligands (^68Ga-P15, ^68Ga-P16 and ^68Ga-P19) were added to the wells in concentrations 0, 1, 5, 10, 25, 50, 100, 500, 1000 and 5000 nM in triplicates. Afterwards, ^68Ga-labelled PSMA-617 was added to each well so its final concentration was 5 nM. All the ligands in this assay were dissolved in the buffer containing 25 mM Tris-HCl, 5.4 mM KCl, 1.8 mM CaCl2, 0.8 mM MgSO4, 5 mM glucose, and 140 mM NaCl in H2O (pH adjusted to 7.4). ^68Ga-PSMA-617 was incubated on cells for 60 min at 37 °C followed by its removal and washing the cells with PBS. Finally, the cells were disintegrated using 0.1 M NaOH and transferred into the scintillation vials for the gamma counting. The IC50 values were calculated by fitting the data using a nonlinear regression algorithm (GraphPad PRISM 7.0) and the data were assessed by t-test.
# [3] = Stability in human plasma/serum (radiochemical purity by HPLC); assay type: in vitro ADME; details: 37 °C, incubation time 0 min, n = 1
# T1 sequence (Q04609 whole entry): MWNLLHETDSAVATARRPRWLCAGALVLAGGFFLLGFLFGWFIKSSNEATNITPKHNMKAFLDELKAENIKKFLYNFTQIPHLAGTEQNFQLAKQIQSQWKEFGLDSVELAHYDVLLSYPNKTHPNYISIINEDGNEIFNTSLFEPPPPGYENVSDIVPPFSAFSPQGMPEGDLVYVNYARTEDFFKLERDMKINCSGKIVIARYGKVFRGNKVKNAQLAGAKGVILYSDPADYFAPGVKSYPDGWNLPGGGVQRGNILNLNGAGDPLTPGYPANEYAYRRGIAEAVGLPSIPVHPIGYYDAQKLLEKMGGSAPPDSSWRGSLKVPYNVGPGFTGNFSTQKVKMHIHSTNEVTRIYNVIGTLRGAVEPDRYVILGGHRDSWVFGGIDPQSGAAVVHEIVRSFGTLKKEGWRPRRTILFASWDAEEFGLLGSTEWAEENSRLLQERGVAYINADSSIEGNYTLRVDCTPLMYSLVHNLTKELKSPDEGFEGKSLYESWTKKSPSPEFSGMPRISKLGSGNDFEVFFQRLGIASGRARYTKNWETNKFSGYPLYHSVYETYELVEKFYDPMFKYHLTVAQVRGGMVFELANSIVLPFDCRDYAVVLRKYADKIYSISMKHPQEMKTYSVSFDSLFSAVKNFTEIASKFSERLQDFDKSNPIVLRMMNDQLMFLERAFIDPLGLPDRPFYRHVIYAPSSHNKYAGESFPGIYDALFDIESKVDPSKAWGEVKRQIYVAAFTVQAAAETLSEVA
Log P [1],IC50 [2] [nM],Stability in human serum (%) [3] [%],IC50 fold higher than that of [68Ga]Ga-P16 ([2]; competition assay) [fold],SMILES
"–3,41 ± 0,13",95.6,99.0,,O=C([O-])CN1CCN(CC(=O)[O-])CCN(CC(=O)NCc2ccc(C(=O)N[C@H](C(=O)NCCCC[C@H](NC(=O)N[C@@H](CCC(=O)O)C(=O)O)C(=O)O)C(c3ccccc3)c3ccccc3)cc2)CCN(CC(=O)[O-])CC1.[68Ga+3] [[^68Ga]Ga-P19]
"–3,07 ± 0,87",4,99.0,,O=C([O-])CN1CCN(CC(=O)[O-])CCN(CC(=O)N[C@H]2CC[C@H](NC(=O)[C@H](Cc3ccc4ccccc4c3)NC(=O)CC[C@H](NC(=O)N[C@@H](CCC(=O)O)C(=O)O)C(=O)O)CC2)CCN(CC(=O)[O-])CC1.[68Ga+3] [[^68Ga]Ga-P16]
"–3,71 ± 0,14",97.3,99.0,~25,O=C([O-])CN1CCN(CC(=O)[O-])CCN(CC(=O)N[C@H]2CC[C@H](NC(=O)[C@@H](Cc3ccc4ccccc4c3)NC(=O)CC[C@H](NC(=O)N[C@@H](CCC(=O)O)C(=O)O)C(=O)O)CC2)CCN(CC(=O)[O-])CC1.[68Ga+3] [[^68Ga]Ga-P15]
